Data taken from US6228602A, “Competitive apo-peroxidase assay” (Bayer Corporation, priority 1999, dated 2001).

Legend:
[1] = Metal porphyrin study: metal porphyrin in water without apo-enzyme (Example IV); format: biochemical; settings: HEMASTIX no lepidine/pH 7.5
Method: (§1) In this example, other metal porphyrins were tested for their ability to reactivate different types of apo-peroxidases. Metals such as Fe, Cu, Mg, Zn, Ni, Mn, Co and Pd were complexed to hematin and added to the peroxidase detecting agent. Metals such as Mn, Fe, Cu and Co and porphyrins other than hematin, i.e. deuteroporphyrin and coproporphyrin were also shown to provide the desired response.

apo-POD [2] = molecular target: T1, apo-POD (Armoracia rusticana, UniProt P00433); test: Metal porphyrin study: reactivation of apo-peroxidase (Example IV); format: biochemical, horse radish; settings: for % R @ 90 second read time on CLINITEK-200+, mean: 12 μM apo-POD, HEMASTIX no lepidine/pH 7.5
T1 construct: purchased Sigma Chemical Company, St. Louis, Mo
T1 sequence (P00433 31-353): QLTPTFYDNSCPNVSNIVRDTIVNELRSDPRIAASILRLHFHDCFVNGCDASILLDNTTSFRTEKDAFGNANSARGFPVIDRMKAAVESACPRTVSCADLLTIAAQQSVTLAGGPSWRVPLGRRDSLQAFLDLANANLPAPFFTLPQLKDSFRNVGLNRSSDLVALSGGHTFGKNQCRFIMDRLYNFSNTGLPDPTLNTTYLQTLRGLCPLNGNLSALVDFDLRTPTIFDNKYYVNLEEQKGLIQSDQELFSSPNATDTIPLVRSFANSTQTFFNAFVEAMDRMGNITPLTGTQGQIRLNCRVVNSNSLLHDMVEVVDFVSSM
Method: as §1

apo-Hb = molecular target: T2, apo-Hb (Homo sapiens, UniProt P68871+P69905); test: Metal porphyrin study: reactivation of apo-hemoglobin (Example IV); format: biochemical; settings: 12 μM apo-Hb, 12 μM metal porphyrin, HEMASTIX no lepidine/pH 7.5
T2 construct: made in house
T2 sequence (P69905 2-142 limits assumed): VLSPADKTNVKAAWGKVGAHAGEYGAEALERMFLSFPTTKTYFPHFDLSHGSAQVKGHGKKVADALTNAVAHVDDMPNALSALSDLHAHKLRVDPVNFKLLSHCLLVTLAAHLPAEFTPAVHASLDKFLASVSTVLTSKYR
T2 sequence (P68871 2-147 limits assumed): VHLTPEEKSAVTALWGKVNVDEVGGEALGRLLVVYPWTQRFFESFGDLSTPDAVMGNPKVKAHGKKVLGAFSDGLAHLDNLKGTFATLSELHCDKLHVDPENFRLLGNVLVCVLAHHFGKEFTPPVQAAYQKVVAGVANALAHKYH
Method: as §1
A 0.7% solution of hemoglobin was lowered to pH 1.5 and the resulting solution was ultrafiltered through a 10 KDa cutoff membrane followed by several changes of water. Filtered material was reconstituted into water. The apo-hemoglobin passed […]. […] It produced a HEMASTIX® result of +++++ indicating a high concentration of hemoglobin.

apo-POD [3] = molecular target: T1, apo-POD; test: Detection limit study: peroxidase activity / apo-POD reactivation read with HEMASTIX reagent (Example I); format: biochemical, horse radish
Method: In this example apo-peroxidase is compared to hematin and hematin-antigen conjugates to determine the detectable concentrations and effects of conjugation and antigen molecular weight on apo-enzyme reactivations. Solutions containing combinations of apo-POD, Fe^+3 hematin and hematin conjugate were tested for peroxidase activity. Peroxidase activity was measured in urine using HEMASTIX® reagent as set out in Table 3. This reagent is similar to that set out in Table 1 but lacking the metal porphyrin conjugate, competitive binder and apo-peroxidase while containing lepidine as an activator.
A 10 μL portion of hematin (3.6 μM, 0.23 mg/dL in phosphate buffered saline) or a 10 μL hematin-BJP allotment (3.6 μM, 8.61 mg/dL in phosphate buffered saline) was mixed with 10 μL apo-POD (3.6 μM, 14.0 mg/dL in phosphate buffered saline) all in 980 μL of phosphate buffered saline and then diluted to the desired concentration with additional phosphate buffered saline. The solution was incubated for 1 minute at 40° C. or at room temperature. The response of HEMASTIX® reagent dipped into the test solution was measured on a CLINITEK™-200 reflectance instrument. The response of the reagent set out in Table 1 on the phosphate buffered solution alone was 65.2% reflectance at 1 minute.
Apo-horse radish peroxidase was obtained from Sigma Chemical Company of St. Louis, Mo. The phosphate buffered solution was prepared by adding 0.69 g monobasic sodium phosphate, 0.71 g of dibasic sodium phosphate and 0.45 g of sodium chloride to 100 mL of water.
The HEMASTIX® reagent referred to earlier with the addition of lepidine and at a lower pH when compared to the formula of Table 1 was applied to the strip in a two dip system of the following composition and used in Examples I to IV (Table 3).

apo-POD [4] = molecular target: T1, apo-POD; test: as above; format: biochemical, horse radish; settings: 1 minute @ 30° C., hematin, antigen-hematin or apo-POD alone (Cases A, B, E)
apo-POD [5] = molecular target: T1, apo-POD; test: Interference study with peroxidase detecting dry reagent (Example III); format: biochemical, horse radish; settings: hemoglobin/myoglobin: reagent without modification; ascorbate: system with ascorbate scavenger
Method: In this example, a peroxidase detecting dry reagent with resistance to 0.81 mg/dL hemoglobin (or myoglobin) and 25 mg/dL ascorbate and sufficient sensitivity to detect apo-peroxidase reactivation was used. […]
The reagent was tested by dipping it into solutions containing the interfering substance with and without Fe hematin. […]

Co deuteroporphyrin
% R @ 90 second read time on CLINITEK-200+, mean ([1]; 120 μM metal porphyrin): 71.5 % R | % R @ 90 second read time on CLINITEK-200+, mean (apo-POD [2]; 120 μM metal porphyrin): 74.1 % R

Fe coproporphyrin
% R @ 90 second read time on CLINITEK-200+, mean ([1]; 12 μM metal porphyrin): 69.7 % R | % R @ 90 second read time on CLINITEK-200+, mean (apo-POD [2]; 12 μM metal porphyrin): 56.4 % R | % R @ 90 second read time on CLINITEK-200+, mean (apo-Hb): 52.1 % R

Mn deuteroporphyrin
% R @ 90 second read time on CLINITEK-200+, mean ([1]; 120 μM metal porphyrin): 66.4 % R | % R @ 90 second read time on CLINITEK-200+, mean (apo-POD [2]; 120 μM metal porphyrin): 48.2 % R | response / activity with apo-peroxidase (in words) (apo-POD [2]; metal porphyrin study): responses similar to those obtained for Fe

Ni deuteroporphyrin
% R @ 90 second read time on CLINITEK-200+, mean ([1]; 120 μM metal porphyrin): 75.5 % R | % R @ 90 second read time on CLINITEK-200+, mean (apo-POD [2]; 120 μM metal porphyrin): 76.1 % R

Pb deuteroporphyrin
% R @ 90 second read time on CLINITEK-200+, mean ([1]; 120 μM metal porphyrin): 72.1 % R | % R @ 90 second read time on CLINITEK-200+, mean (apo-POD [2]; 120 μM metal porphyrin): 73.4 % R

apo-POD: Apo-horse radish peroxidase obtained from Sigma Chemical Company
peroxidase activity (in words) (apo-POD [3]; 3.6 nM, without partner): no activity by itself | time to complete reactivation (apo-POD [3]; 20-40° C.): 1 min | Mean % Reflectance @ 660 nm (apo-POD [4]; 3.6 nM, antigen IgG): 62.3% | Mean % Reflectance @ 660 nm (apo-POD [4]; (3.6 nM; antigen Sulfmethazine)): 61.2% | Mean % Reflectance @ 660 nm (apo-POD [4]; (3.6 mM; antigen BJP)): 64.1%

hemoglobin: interfering substance, 0.81 mg/dL
interference with peroxidase detecting reagent (in words) (apo-POD [5]): causes a false positive response

B1: myoglobin: interfering substance, 0.81 mg/dL (protein, UniProt P02144 2-154, looked up)
Myoglobin: GLSDGEWQLVLNVWGKVEADIPGHGQEVLIRLFKGHPETLEKFDKFKHLKSEDEMKASEDLKKHGATVLTALGGILKKKGHHEAEIKPLAQSHATKHKIPVKYLEFISECIIQVLQSKHPGDFGADAQGAMNKALELFRKDMASNYKELGFQG
interference with peroxidase detecting reagent (in words) (apo-POD [5]): causes a false positive response
